Read-outs that look alike come from different tables or passages of the source. Where a SMILES comes first, the peptide text is derived from it.

Drawing on PMC8537277 (Pharmaceuticals, 2021), this text covers IC50 for 6 molecules.

Test [1] concerns A/Parma/24/09 H1N1 oseltamivir-resistant virus.
Test [2] shares this test system. As to conditions: reference peptides; ref Scala et al. (2017) [14]; read-out: HI Titer (IC50) A/Parma/24/09 H1N1; cited from earlier work.
The mark [3] stands for this setting: A/Parma/24/09 oseltamivir-resistant virus, 1 h.

As for `CC(=O)N[C@@H](CO)C(=O)N[C@@H](C)C(=O)N[C@@H](CC(=O)O)C(=O)N[C@@H](CS)C(N)=O` [Peptide 8] (Ac-SADC-NH2), the IC50 in test [1] (setting [3]) turned out to be 0.0022 pM.
`CC(=O)N[C@@H](CO)C(=O)N[C@@H](CC(C)C)C(=O)N[C@@H](CC(=O)O)C(=O)N[C@@H](CS)C(N)=O` [Peptide 2, Ac-SLDC-NH2] (Ac-SLDC-NH2): the IC50 in test [2] was 6 nM.
As to `CC(=O)N[C@@H](CO)C(=O)N[C@@H](CCCCN)C(=O)N[C@@H](Cc1c[nH]cn1)C(=O)N[C@@H](CO)C(N)=O` [Peptide 1, Ac-SKHS-NH2] (Ac-SKHS-NH2), the IC50 in test [2] is 1.5 nM.
As to `CC(=O)N[C@@H](CO)C(=O)N[C@@H](CCCCN)C(=O)N[C@@H](C)C(=O)N[C@@H](CO)C(N)=O` [Peptide 5] (Ac-SKAS-NH2), the IC50 in test [1] (setting [3]) worked out at 2.9 pM.
Turning to `CC(=O)N[C@@H](CO)C(=O)N[C@@H](C)C(=O)N[C@@H](Cc1c[nH]cn1)C(=O)N[C@@H](CO)C(N)=O` [Peptide 4, Ac-SAHS-NH2] (Ac-SAHS-NH2), in test [1] (read-out: HI Titer (IC50) A/Parma/24/09 H1N1, 50% inhibition of virus-induced hemagglutination, N.D. = not detectable at maximum tested concentration 12.5 × 10^3 nM), the IC50 was 500 pM.
As for `CC(=O)N[C@@H](CO)C(=O)N[C@@H](CC(C)C)C(=O)N[C@@H](CC(=O)O)C(=O)N[C@@H](C)C(N)=O` [Peptide 10] (Ac-SLDA-NH2), the IC50 in test [1] (setting [3]) was 6100 pM.
